Assay results: publication PMC8321095, “Species-Specific Effects of Cation Channel TRPM4 Small-Molecule Inhibitors” (Frontiers in Pharmacology, 2021)
One block for each compound: values may come before it.

Experiments:
Type in all cases: cell-based
[1] = target: T1, mouse TRPM4 (Mus musculus, UniProt Q7TN37); assay: Inside-out patch clamp on TsA-201 cells stably expressing mouse TRPM4; conditions: for effect of CBA- and NBA-derived compounds on mouse TRPM4 current: 10 μM, applied intracellularly, n ≥ 6
T1 construct: expressed in transfected cells
Method: (§1) They were kept at 37°C with 5% CO2 in a humidified atmosphere incubator.
Electrophysiological recordings were performed in the inside-out patch-clamp configuration with patch pipettes (1 and 2 μm tip opening) pulled from 1.5 mm borosilicate glass capillaries (Zeitz-Instruments GmbH, München, Germany) using micropipette puller P 97 (Sutter Instruments, Novato, CA, United States). The tips were polished to have a pipette resistance of 2–4 MΩ in the bath solution. The pipette solution contained (in mM) 150 NaCl, 10 HEPES, and 2 CaCl2 (pH 7.4 with NaOH). The bath solution contained (in mM) 150 NaCl, 10 HEPES, 2 HEDTA (pH 7.4 with NaOH), and no Ca^2+. […] Bath solution with 0 and 300 μM Ca^2+ concentrations were applied to cells by a modified rapid solution exchanger (Perfusion Fast-Step SF-77B; Warner Instruments Corp. CT, United States). […] Data were low-pass filtered at 5 kHz and sampled at 10 kHz. Experiments were performed at room temperature (20–25°C). The holding potential was 0 mV. For measuring steady-state currents, the stimulation protocol consisted of two sweeps with a total duration of 1,000 ms, the first sweep at −100 mV for 500 ms and the second at +100 mV for 500 ms (Figure 2). […] The I-V relationships (IV curves) have been determined using an I-V protocol from −100 mV to +100 mV for 500 ms with a difference of 20 mV between each sweep (cf. Figure 6). The IV curves have been normalised to the maximum current. No fit was applied.
After obtaining inside-out membrane patches, the presence of TRPM4 in the patch membrane was confirmed by switching the perfusion solution without calcium at the intracellular side of the membrane to a solution containing 300 μM calcium, which activates TRPM4 and triggers the current. Once the TRPM4 currents were activated and stabilised for intracellular compound application, the perfusion solution containing 300 μM calcium and either the compound or free adenosine triphosphate (ATP) was applied. For extracellular application, the compounds were added to the […] (pipette) solution.
Electrophysiology data were analysed using IGOR PRO 6 (WaveMetrics, Lake Oswego, United States), Normalized current percentage inhibition was calculated as follows ([activated current at 300 μM calcium]—[activated current at 300 μM calcium with compound]) * 100/[activated current at 300 µM calcium]. Concentration-response curves were fitted using the Hill equation fit parameter of IGOR (NC = NCmax [Cmpd]nH/([Cmpd]nH + EC50 nH)) where NC is normalized current [Cmpd] is compound concentration and nH is the Hill coefficient. Data are presented as mean ± SEM except for Figures 3 and 7, where the data have been normalised to 100 for the current recorded in the presence of 300 µM calcium only. Statistically significant differences conditions were determined using a non-parametric test with a Mann-Whitney post-test.

[2] = target: T2, human TRPM4 (Homo sapiens, UniProt Q8TD43); assay: Inside-out patch clamp on TsA-201 cells stably expressing human TRPM4; conditions: 300 μM calcium, +100 mV
T2 construct: expressed in transfected cells
Method: as §1
Electrophysiological recordings were performed in the inside-out patch-clamp configuration with patch pipettes (1 and 2 μm tip opening) pulled from 1.5 mm borosilicate glass capillaries (Zeitz-Instruments GmbH, München, Germany) using micropipette puller P 97 (Sutter Instruments, Novato, CA, United States). The tips were polished to have a pipette resistance of 2–4 MΩ in the bath solution. The pipette solution contained (in mM) 150 NaCl, 10 HEPES, and 2 CaCl2 (pH 7.4 with NaOH). The bath solution contained (in mM) 150 NaCl, 10 HEPES, 2 HEDTA (pH 7.4 with NaOH), and no Ca^2+. […] The I-V relationships (IV curves) have been determined using an I-V protocol from −100 mV to +100 mV for 500 ms with a difference of 20 mV between each sweep (cf. Figure 6). […]
Electrophysiology data were analysed using IGOR PRO 6 (WaveMetrics, Lake Oswego, United States), Normalized current percentage inhibition was calculated as follows ([activated current at 300 μM calcium]—[activated current at 300 μM calcium with compound]) * 100/[activated current at 300 µM calcium]. […] Data are presented as mean ± SEM except for Figures 3 and 7, where the data have been normalised to 100 for the current recorded in the presence of 300 µM calcium only. […]

[3] = system: TsA-201 cells; assay: Cytotoxicity test (trypan blue cell counting); conditions: Homo sapiens, tsA201, 24 h, read-out: EC50, concentration of the inhibitor required to induce 50% of cell death
Method: Untransfected TsA-201 cells were seeded in a 96-wells plate at a concentration of 10,000 cells per well with DMEM and incubated at 37°C and 5% CO2 in a humidified atmosphere incubator overnight. […] After incubation, the cells were washed and incubated in 0.01% trypsin-EDTA until the cellular layer was completely detached. Cells were centrifuged down, and the pellet resuspended in 1 ml PBS. Cells were then diluted in 1 part of 0.4% trypan blue and 1-part cell suspension. This mixture was incubated for 3 min at room temperature. Finally, the unstained (viable) and stained (nonviable) cells were counted in the haemocytometer (BRAND® counting chamber BLAUBRAND®, Wertheim, Germany).

[4] = bath solution, 300 μM calcium, +100 mV

T1 sequence (Q7TN37 whole entry): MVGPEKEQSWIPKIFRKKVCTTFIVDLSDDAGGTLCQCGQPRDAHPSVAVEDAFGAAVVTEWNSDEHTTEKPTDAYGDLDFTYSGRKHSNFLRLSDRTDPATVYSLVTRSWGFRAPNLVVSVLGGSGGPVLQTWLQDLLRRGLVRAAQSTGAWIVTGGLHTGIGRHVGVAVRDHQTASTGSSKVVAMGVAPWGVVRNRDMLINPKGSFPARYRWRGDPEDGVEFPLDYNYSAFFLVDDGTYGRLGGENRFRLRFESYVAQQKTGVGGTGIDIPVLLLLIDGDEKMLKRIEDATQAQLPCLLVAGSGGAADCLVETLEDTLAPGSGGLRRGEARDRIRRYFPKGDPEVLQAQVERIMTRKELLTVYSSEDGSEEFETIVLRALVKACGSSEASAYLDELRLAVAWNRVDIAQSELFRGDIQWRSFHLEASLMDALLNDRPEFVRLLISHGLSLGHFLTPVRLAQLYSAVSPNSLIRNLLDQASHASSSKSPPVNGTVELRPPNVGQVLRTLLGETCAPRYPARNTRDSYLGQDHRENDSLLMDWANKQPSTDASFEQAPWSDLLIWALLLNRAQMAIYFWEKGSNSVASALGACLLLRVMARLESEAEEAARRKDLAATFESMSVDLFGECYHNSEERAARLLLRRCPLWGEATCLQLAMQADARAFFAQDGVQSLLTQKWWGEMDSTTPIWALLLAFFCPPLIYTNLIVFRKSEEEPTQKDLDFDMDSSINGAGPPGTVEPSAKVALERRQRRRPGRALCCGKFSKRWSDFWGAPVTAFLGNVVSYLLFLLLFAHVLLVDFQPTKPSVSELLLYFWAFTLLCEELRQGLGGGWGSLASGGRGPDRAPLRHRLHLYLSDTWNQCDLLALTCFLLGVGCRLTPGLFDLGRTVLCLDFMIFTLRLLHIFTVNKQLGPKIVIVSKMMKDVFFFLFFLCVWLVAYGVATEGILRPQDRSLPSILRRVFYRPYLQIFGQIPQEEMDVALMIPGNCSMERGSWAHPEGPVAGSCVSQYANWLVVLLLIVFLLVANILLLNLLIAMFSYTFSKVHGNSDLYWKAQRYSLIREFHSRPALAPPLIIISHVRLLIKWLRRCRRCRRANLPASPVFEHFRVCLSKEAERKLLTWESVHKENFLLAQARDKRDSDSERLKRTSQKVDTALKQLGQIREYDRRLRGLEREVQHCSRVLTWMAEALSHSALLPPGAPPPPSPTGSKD
T2 sequence (Q8TD43 whole entry): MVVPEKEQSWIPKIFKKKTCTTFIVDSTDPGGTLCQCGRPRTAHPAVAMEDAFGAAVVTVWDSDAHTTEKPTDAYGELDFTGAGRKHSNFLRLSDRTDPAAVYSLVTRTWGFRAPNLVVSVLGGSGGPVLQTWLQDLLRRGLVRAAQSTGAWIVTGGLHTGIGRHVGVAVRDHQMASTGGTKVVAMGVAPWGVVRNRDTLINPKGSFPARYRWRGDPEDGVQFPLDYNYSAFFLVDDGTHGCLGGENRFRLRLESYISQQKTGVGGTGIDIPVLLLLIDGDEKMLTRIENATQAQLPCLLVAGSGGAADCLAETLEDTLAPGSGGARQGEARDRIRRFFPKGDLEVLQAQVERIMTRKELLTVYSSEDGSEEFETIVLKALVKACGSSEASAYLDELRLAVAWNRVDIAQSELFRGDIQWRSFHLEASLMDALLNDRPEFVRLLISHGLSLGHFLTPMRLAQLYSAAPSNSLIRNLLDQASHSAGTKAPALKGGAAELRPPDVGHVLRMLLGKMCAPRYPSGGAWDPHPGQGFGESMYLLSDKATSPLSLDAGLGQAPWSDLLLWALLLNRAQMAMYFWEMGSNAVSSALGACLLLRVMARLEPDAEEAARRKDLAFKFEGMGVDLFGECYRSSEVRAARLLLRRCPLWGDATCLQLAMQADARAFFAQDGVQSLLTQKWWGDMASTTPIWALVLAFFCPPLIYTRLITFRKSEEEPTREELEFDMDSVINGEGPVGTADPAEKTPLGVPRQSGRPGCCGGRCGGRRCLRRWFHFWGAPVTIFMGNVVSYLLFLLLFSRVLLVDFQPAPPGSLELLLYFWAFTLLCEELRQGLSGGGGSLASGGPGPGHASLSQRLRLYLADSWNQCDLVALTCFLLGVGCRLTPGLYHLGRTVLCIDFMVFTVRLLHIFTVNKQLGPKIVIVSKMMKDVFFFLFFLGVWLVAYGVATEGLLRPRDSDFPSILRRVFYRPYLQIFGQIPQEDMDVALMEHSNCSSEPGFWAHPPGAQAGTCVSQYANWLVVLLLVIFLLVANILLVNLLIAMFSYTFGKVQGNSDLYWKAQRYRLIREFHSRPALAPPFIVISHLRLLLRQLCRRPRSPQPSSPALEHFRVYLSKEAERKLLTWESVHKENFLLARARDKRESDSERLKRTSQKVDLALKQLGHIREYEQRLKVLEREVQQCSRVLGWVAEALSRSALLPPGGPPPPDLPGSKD

SMILES: Oc1cc2ccccc2c2ccccc12 [9-phenanthrol]
effect on human TRPM4 sodium current ([2]; 30 μM, extracellular or intracellular application): inhibited human TRPM4 sodium current with a similar efficacy independently of the application side
concentration dependence of potentiation of mouse TRPM4 current ([1]; 0.1 μM versus 100 μM, intracellular application, n = 6): more pronounced with low concentrations
effect on mouse TRPM4 current, intracellular application ([1]; 30 μM in bath solution, 300 μM calcium, +100 mV): increased the current
effect on mouse TRPM4 current, extracellular application ([1]; 30 μM in pipette solution, 300 μM calcium, +100 mV): decreased the mouse TRPM4 current
calcium dependence of the increase of mouse TRPM4 current ([1]; 30 μM, intracellular application, with or without 300 μM calcium): observed only in the presence of 300 μM calcium
EC50 [3]: ~20000 nM

SMILES: Cc1cc(Cl)ccc1OC(C)C(=O)Nc1cc(Cl)ccc1C(=O)O (centres unmarked) [CBA-d1]
effect of CBA- and NBA-derived compounds on mouse TRPM4 current [1, 4]: did not decrease the mouse TRPM4 currents

Now from value to compound, other results behind:

effect of CBA- and NBA-derived compounds on mouse TRPM4 current [1, 4]: could inhibit mouse TRPM4 currents
SMILES: O=C(COc1ccc(Cl)c2ccccc12)Nc1cc(Cl)ccc1C(=O)O [NBA-d1, 4-chloro-2-(2-((4-chloronaphthalen-1-yl)oxy)acetamido) benzoic acid]

IC50 ([1]; inside-out patch, bath solution, 300 μM calcium, +100 mV, Hill fit, n = 6, read-out: IC50 on mouse TRPM4 current, intracellular application): 1400 nM
SMILES: Nc1ncnc2c1ncn2[C@@H]1O[C@H](COP(=O)(O)OP(=O)(O)OP(=O)(O)O)[C@@H](O)[C@H]1O [ATP, adenosine triphosphate]
IC50 ([2]; inside-out patch, bath solution, Hill fit, n = 6, read-out: IC50 on human TRPM4 current, intracellular application): 800 nM

effect of CBA- and NBA-derived compounds on mouse TRPM4 current [1, 4]: could inhibit mouse TRPM4 currents
SMILES: O=C(COc1cccc2c1CCCC2)Nc1cc(Cl)ccc1C(=O)O [NBA-d2, 4-chloro-2-(2-((5,6,7,8-tetrahydronaphthalen-1-yl)oxy)acetamido) benzoic acid]
